Measurements: US9688698B2, “Heteroaromatic compounds and their use as dopamine D1 ligands” (PFIZER INC., priority 2014, dated 2017)
Structures can show the parent of a compound that is named as a salt.

biological target: T1, Human D1 Receptor (Homo sapiens, UniProt P21728); experiment: Human D1 Receptor Binding Assay ([3H]-SCH23390 competition binding); details: over-expressing LTK human cell lines; 0.5 nM [3H]-SCH23390; 30 min at 37° C.; footnote a = geometric mean of ≧5 determinations, footnote b = single determination; read-out: Human D1 Receptor Binding, Ki (nM); Geometric mean of 2-4 determinations (unless otherwise indicated)
T1 construct: expressed in transfected cells; host or cells: LTK cell line over-expressing the D1 receptor
Description: The affinity of the compounds described herein was determined by competition binding assays similar to those described in Ryman-Rasmussen et al., “Differential activation of adenylate cyclase and receptor internalization by novel dopamine D1 receptor agonists”, Molecular Pharmacology 68(4):1039-1048 (2005).
D1 binding assays were performed using over-expressing LTK human cell lines. […] These ligand and tissue concentrations were used in time course studies to determine linearity and equilibrium conditions for binding. Binding was at equilibrium with the specified amount of tissue in 30 minutes at 37° C. […] The pellet was resuspended in assay buffer [50 mM Tris (pH 7.4@RT) containing 4 mM MgSO4 and 0.5 mM EDTA]. […] Non-specific binding was determined by radioligand binding in the presence of a saturating concentration of (+)-Butaclamol (10 μM), a D1 antagonist. After a 30 minute incubation period at 37° C., assay samples were rapidly filtered through Unifilter-96 GF/B PEI-coated filter plates and rinsed with 50 mM Tris buffer (pH 7.4 at 4° C.). […] The IC50 value (concentration at which 50% inhibition of specific binding occurs) was calculated by linear regression of the concentration-response data in Microsoft Excel. Ki values were calculated according to the Cheng-Prusoff equation: […]

T1 sequence (P21728 whole entry): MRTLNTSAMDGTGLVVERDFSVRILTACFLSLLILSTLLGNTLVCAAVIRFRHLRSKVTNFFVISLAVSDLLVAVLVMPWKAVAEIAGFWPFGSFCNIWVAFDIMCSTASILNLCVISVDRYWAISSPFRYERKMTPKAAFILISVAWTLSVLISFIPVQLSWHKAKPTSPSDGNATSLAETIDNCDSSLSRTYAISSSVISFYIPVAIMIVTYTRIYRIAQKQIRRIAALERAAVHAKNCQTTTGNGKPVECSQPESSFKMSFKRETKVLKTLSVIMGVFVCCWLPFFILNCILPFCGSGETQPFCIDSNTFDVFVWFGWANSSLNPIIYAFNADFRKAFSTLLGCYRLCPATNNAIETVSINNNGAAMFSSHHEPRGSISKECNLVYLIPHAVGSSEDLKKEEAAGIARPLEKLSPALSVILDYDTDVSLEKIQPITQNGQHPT

Structure (SMILES)	Ki [nM]
Cc1ncnc(C)c1-c1cc(F)c(Oc2nccc3ncsc23)c(F)c1 [Example 32, 4[4-(4,6-dimethylpyrimidin-5-yl)-2,6-difluorophenoxy][1,3]thiazolo[5,4-c]pyridine]	1060
Cc1ncnc(C)c1-c1cc(F)c(Oc2ncnc3ccsc23)c(F)c1 [Example 33, 4-[4-(4,6-dimethylpyrimidin-5-yl)-2,6-difluorophenoxy]thieno[3,2-d]pyrimidine]	864
Cc1cc(Oc2nccc3ncsc23)c(F)cc1-c1c(C)ncnc1C [Example 34, 4-[4-(4,6-dimethylpyrimidin-5-yl)-2-fluoro-5-methylphenoxy][1,3]thiazolo[5,4-c]pyridine]	151
Cc1ncnc(C)c1-c1ccc(Oc2ncnc3ccsc23)cc1C#N [Example 35, 2-(4,6-dimethylpyrimidin-5-yl)-5-(thieno[3,2-d]pyrimidin-4-yloxy)benzonitrile]	480
Cc1ncnc(C)c1-c1ccc(Oc2nccc3ccsc23)cc1Cl [Example 36, 7-[3-chloro-4-(4,6-dimethylpyrimidin-5-yl)phenoxy]thieno[2,3-c]pyridine]	6.7
Cc1ncnc(C)c1-c1cc(F)c(Oc2nccc3ccsc23)c(F)c1 [Example 37, 7-[4-(4,6-dimethylpyrimidin-5-yl)-2,6-difluorophenoxy]thieno[2,3-c]pyridine]	79.8
Cc1cc(Oc2nccc3ccsc23)c(F)cc1-c1c(C)ncnc1C [Example 38, 7-[4-(4,6-dimethylpyrimidin-5-yl)-2-fluoro-5-methylphenoxy]thieno[2,3-c]pyridine]	7.9
Cc1ncnc(C)c1-c1ccc(Oc2nccc3ccsc23)c(F)c1 [Example 39, 7-[4-(4,6-dimethylpyrimidin-5-yl)-2-fluorophenoxy]thieno[2,3-c]pyridine]	28.2
Cc1ncnc(C)c1-c1ccc(Oc2nccc3ccsc23)c(F)c1C [Example 40, 7-[4-(4,6-dimethylpyrimidin-5-yl)-2-fluoro-3-methylphenoxy]thieno[2,3-c]pyridine]	40.7
Cc1ncnc(C)c1-c1cc(F)c(Oc2nccc3ccsc23)cc1F [Example 41, 7-[4-(4,6-dimethylpyrimidin-5-yl)-2,5-difluorophenoxy]thieno[2,3-c]pyridine]	24.3
COc1cc(Oc2nccc3ccsc23)ccc1-c1c(C)cnnc1C [Example 42, 7-[4-(3,5-dimethylpyridazin-4-yl)-3-methoxyphenoxy]thieno[2,3-c]pyridine]	17.7
Cc1cnnc(C)c1-c1ccc(Oc2nccc3ccsc23)cc1C#N [Example 43, 2-(3,5-dimethylpyridazin-4-yl)-5-(thieno[2,3-c]pyridin-7-yloxy)benzonitrile, trifluoroacetate salt]	46.3
COc1cc(Oc2nccc3ccsc23)ccc1-c1cccnc1C [Example 44, 7-[3-methoxy-4-(2-methylpyridin-3-yl)phenoxy]thieno[2,3-c]pyridine, trifluoroacetate salt]	16.4
Cc1cnnc(C)c1-c1ccc(Oc2nccc3ccsc23)cc1F [Example 47, 7-[4-(3,5-dimethylpyridazin-4-yl)-3-fluorophenoxy]thieno[2,3-c]pyridine]	6.1
COc1cc(Oc2nccc3ccsc23)ccc1-c1c(C)ncnc1C [Example 48, 7-[4-(4,6-dimethylpyrimidin-5-yl)-3-methoxyphenoxy]thieno[2,3-c]pyridine]	13.5
Cc1ncnc(C)c1-c1ccc(Oc2nccc3ccsc23)cc1C#N [Example 49, 2-(4,6-dimethylpyrimidin-5-yl)-5-(thieno[2,3-c]pyridin-7-yloxy)benzonitrile]	16.3

Structure (SMILES)	Ki [nM]
Cc1ncnc(C)c1-c1ccc(Oc2nccc3ccsc23)cc1F [Example 50, 7-[4-(4,6-dimethylpyrimidin-5-yl)-3-fluorophenoxy]thieno[2,3-c]pyridine]	6.7
Cc1nc2cnccc2n1-c1ccc(Oc2nccc3ccsc23)cc1 [Example 51, 2-methyl-1-[4-(thieno[2,3-c]pyridin-7-yloxy)phenyl]-1H-imidazo[4,5-c]pyridine, trifluoroacetate salt]	89.5
Cc1cc(Oc2nccc3ccoc23)ccc1-c1c(C)ncnc1C#N [Example 52, 5-[4-(furo[2,3-c]pyridin-7-yloxy)-2-methylphenyl]-6-methylpyrimidine-4-carbonitrile]	212
Cc1cc(Oc2nccc3cc[nH]c23)ccc1-c1nccnc1C [Example 53, 7-[3-methyl-4-(3-methylpyrazin-2-yl)phenoxy]-1H-pyrrolo[2,3-c]pyridine]	1890
Cc1cc(Oc2nccc3cc[nH]c23)ccc1-c1c(C)ncc2nccn12 [Example 54, 6-methyl-5-[2-methyl-4-(1H-pyrrolo[2,3-c]pyridin-7-yloxy)phenyl]imidazo[1,2-a]pyrazine]	68.9
Cc1cc(Oc2nccc3cc[nH]c23)ccc1-c1c(C)ncnc1C#N [Example 55, 6-methyl-5-[2-methyl-4-(1H-pyrrolo[2,3-c]pyridin-7-yloxy)phenyl]pyrimidine-4-carbonitrile]	614
Cc1nc2ccnc(Oc3ccc(-c4c(C)n[nH]c(=O)c4C)c(C)c3)c2s1 [Example 56, 4,6-dimethyl-5-{2-methyl-4-[(2-methyl[1,3]thiazolo[5,4-c]pyridin-4-yl)oxy]phenyl}pyridazin-3(2H)-one]	106
Cc1cc(Oc2ncnc3ncsc23)ccc1-c1c(C)ncnc1C [Example 57, 7-[4-(4,6-dimethylpyrimidin-5-yl)-3-methylphenoxy][1,3]thiazolo[4,5-d]pyrimidine]	2340
Cc1cc(Oc2nccc3ncsc23)ccc1-c1c(C)ncnc1C [Example 58, 4-[4-(4,6-dimethylpyrimidin-5-yl)-3-methylphenoxy][1,3]thiazolo[5,4-c]pyridine]	75.1
COc1cc(Oc2nccc3ncsc23)ccc1-c1c(C)ncnc1C [Example 59, 4-[4-(4,6-dimethylpyrimidin-5-yl)-3-methoxyphenoxy][1,3]thiazolo[5,4-c]pyridine]	185
Cc1cc(Oc2nccc3ncsc23)ccc1-c1c(C)cnnc1C [Example 60, 4-[4-(3,5-dimethylpyridazin-4-yl)-3-methylphenoxy][1,3]thiazolo[5,4-c]pyridine]	65.3
Cc1cnnc(C)c1-c1ccc(Oc2nccc3ncsc23)cc1F [Example 63, 4-[4-(3,5-dimethylpyridazin-4-yl)-3-fluorophenoxy][1,3]thiazolo[5,4-c]pyridine]	109
Cc1ncnc(C)c1-c1ccc(Oc2nccc3ncsc23)c(F)c1C [Example 66, 4-[4-(4,6-dimethylpyrimidin-5-yl)-2-fluoro-3-methylphenoxy][1,3]thiazolo[5,4-c]pyridine]	175
Cc1n[nH]c(=O)c(C)c1-c1ccc(Oc2ncnc3ccsc23)cc1 [Example 67, 4,6-dimethyl-5-[4-(thieno[3,2-d]pyrimidin-4-yloxy)phenyl]pyridazin-3(2H)-one]	17.7
Cc1c(-c2ccc(Oc3ncnc4ccsc34)cc2)n(C)c(=O)[nH]c1=O [Example 68, 1,5-dimethyl-6-[4-(thieno[3,2-d]pyrimidin-4-yloxy)phenyl]pyrimidine-2,4(1H,3H)-dione]	15.6
Cc1cc(Oc2nccc3cc[nH]c23)ccc1-c1c(C)n[nH]c(=O)c1C [Example 69, 4,6-dimethyl-5-[2-methyl-4-(1H-pyrrolo[2,3-c]pyridin-7-yloxy)phenyl]pyridazin-3(2H)-one]	126
